# According to US11624056B2, “Method for producing cartilage cells induced to be differentiated from stem cells” (YiPCELL Inc., priority 2017, dated 2023):
# How the values were obtained:
# Assay type in all cases: cell-based, human
# [1] = tested on: heavy OG cells; assay: Chondrocyte markers in chondrogenic pellet differentiated in IGF2 inhibitor-treated medium; conditions: 2 mM chromeceptin, treatment after aggregation compared with before aggregation
# Method: First, among the OG cells obtained in the step iii) of [Example 12], the heavy cells were cultured for 3 days while treating the medium with chromeceptin at a concentration of 2 mM, in the course of inducing differentiation into a chondrogenic pellet according to the step iv). Experimental groups were divided into two groups, that is, the experimental group (before aggregation) in which differentiation into chondrocytes had been induced by performing treatment with chromeceptin from the beginning of formation of a chondrogenic pellet, and the experimental group (after aggregation) in which differentiation into chondrocytes had been induced by performing treatment with chromeceptin from 7 days after induction of formation of a chondrogenic pellet. The differentiated chondrogenic pellets were respectively obtained therefrom. Then, mRNA was extracted from each of the obtained chondrogenic pellets, and the expression levels of COL2A1, SOX9, COL1A1 and COL10A1 were checked.
# [2] = tested on: heavy OG cells; assay: Proliferation of heavy OG cells cultured in IGF2 inhibitor-treated medium
# Method: First, among the OG cells obtained in the step iii) of [Example 12], the heavy cells were cultured for 3 days while treating the medium with chromeceptin at a concentration of 2 nM to 2 μM, in the course of inducing differentiation into a chondrogenic pellet according to the step iv). Then, morphology of the cells was observed over the treatment time, and the number of the proliferated cells was counted.
# [3] = tested on: heavy OG cells; assay: Chondrogenic differentiation markers of heavy OG cells cultured in IGF2 inhibitor-treated medium
# Text: Accordingly, heavy OG cells were induced to differentiate into a chondrogenic pellet while performing treatment with chromeceptin under the conditions of Example <16-1>, during which the OG cells were obtained, and mRNA was extracted therefrom and used to synthesize cDNA. Using the synthesized cDNA as a template, expression levels of SOX9, COL2A1, COL10A1, and IGF2 were quantitatively analyzed.
compound,measurement,setting,value
CN(C)c1ccc2c(c1)OC(N)=C(C#N)C2c1cccc(C(F)(F)F)c1 (stereo not drawn) [chromeceptin],expression level of SOX9 in chondrogenic pellet,[1],significantly increased
same,decrease of the number of OG cells,"[2]; 2 μM chromeceptin, after 72 hours, compared with untreated control",≥ 3 times
same,degree of proliferation of the cells,"[2]; chromeceptin 2 nM to 2 μM, 3 days",decreases with increased treatment concentration
same,expression level of SOX9,"[3]; 2 μM chromeceptin, compared with untreated control (Normal Ctrl)",remarkably increases
same,expression level of IGF2 in the OG cells,[3]; chromeceptin 2 nM to 2 μM,decreases with increased treatment concentration
same,expression level of SOX9,[3]; chromeceptin 2 nM to 2 μM,significantly increases with increased treatment concentration
